Test results taken from patent US11505798B2, “Methods and compositions for treating inflammatory diseases” (The Regents of the University of California, priority 2019, dated 2022).

Tested on: GAPLINC
Assay: qPCR of GAPLINC in MDMs pretreated with NF-κB inhibitor, then LPS stimulation
Type: cell-based, human
Conditions: MDMs pretreated with 10 uM, LPS 200 ng/ml for 6 h, vs DMSO
Excerpt: FIGS. 14A-14I show monocytes isolated from human PBMCs and differentiated into macrophages were transfected with control or GAPLINC siRNA. […] Data from RNA-seq performed in biological duplicates. FIG. 14C: GAPLINC isoforms in MDMs as determined by Nanopore-based R2C2 sequencing. Data from Nanopore-sequencing performed in biological duplicates. FIG. 14D: Table representing read counts and percent of each GAPLINC isoform. FIG. 14E: Bi-directional vector expressing GFP-Zeocin on one side and GAPLINC on the other side. FIGS. 14F and 14G: qPCR analysis of GAPLINC expression in THP-1 cells expressing ectopic GAPLINC or empty-vector control. Levels of IL6 were quantified following stimulation with LPS (200 ng/ml) for 6 h; data pooled from three independent experiments. *p<0.05. FIG. 14H: qPCR analysis of GAPLINC in MDMs (n=3) pretreated with DMSO or BAY-7082 (10 uM), followed by LPS stimulation (200 ng/ml) for 6 h; data pooled from three independent experiments. *p<0.05. FIG. 14I: ATAC-seq analysis of monocytes and macrophages, untreated and treated with LPS (200 ng/ml) for 1 h, 6 h and 18 h.
Next, we examined GAPLINC levels in primary MDMs in response to inflammation. […] Induction of positive control inflammatory genes TNFα, IL6, and CCL5 was confirmed (FIGS. 16B-16D). […]

SMILES: Cc1ccc(S(=O)(=O)/C=C/C#N)cc1 [BAY11-7082]
- downregulation of GAPLINC upon LPS stimulation: impaired relative to control
